Experimental data: ChEMBL document CHEMBL3885881, “DrugMatrix”

Organism: Rattus norvegicus
Test: DrugMatrix - Regimen: Daily Repeat
Assay type: toxicity, organism-based, Sprague-Dawley
Parameters: regimen Daily Repeat, gender Male, age 6-8 weeks
Details: in vivo, po, route oral GAVAGE, vehicle 100 % WATER; for ABSOLUTE BASOPHIL / ABSOLUTE EOSINOPHIL / ABSOLUTE LYMPHOCYTE / ABSOLUTE MONOCYTE / ABSOLUTE SEGMENTED NEUTROPHIL / BASOPHIL / EOSINOPHIL / ERYTHROCYTE COUNT / HEMATOCRIT / HEMOGLOBIN / LEUKOCYTE COUNT / LYMPHOCYTE / MEAN CORPUSCULAR HEMOGLOBIN / MEAN CORPUSCULAR HEMOGLOBIN CONCENTRATION / MEAN CORPUSCULAR VOLUME / MONOCYTE / NEUTROPHIL / NUCLEATED RED BLOOD CELLS / PLATELET COUNT: tissue Blood; for ALANINE AMINOTRANSFERASE / ALBUMIN / ALKALINE PHOSPHATASE / ASPARTATE AMINOTRANSFERASE / BLOOD UREA NITROGEN / CARBON DIOXIDE / CHLORIDE / CHOLESTEROL / CREATINE PHOSPHOKINASE / CREATININE / GLUCOSE / LACTATE DEHYDROGENASE / LIPASE / PHOSPHORUS / POTASSIUM / SODIUM / TOTAL BILIRUBIN / TOTAL PROTEIN / URIC ACID: tissue Plasma
[1] = 5 mg/kg, 120 h, dose level Low, time 5 day
[2] = 15 mg/kg, 72 h, dose level High, time 3 day
[3] = 15 mg/kg, 120 h, dose level High, time 5 day

What does the source list for `C[N+](C)(C)CCOC(N)=O.[Cl-]` [CARBACHOL]?
ABSOLUTE BASOPHIL [1]: 0 CELLS/uL; ABSOLUTE EOSINOPHIL [1]: 0 CELLS/uL; ABSOLUTE LYMPHOCYTE [1]: 11606.67 CELLS/uL; ABSOLUTE MONOCYTE [1]: 117 CELLS/uL; ABSOLUTE SEGMENTED NEUTROPHIL [1]: 1076.33 CELLS/uL; BASOPHIL [1]: 0%; EOSINOPHIL [1]: 0%; ERYTHROCYTE COUNT [1]: 5.68 x10E6/uL; HEMATOCRIT [1]: 35.2%; HEMOGLOBIN [1]: 13.47 G/DL; LEUKOCYTE COUNT [1]: 12.8 x10E3/uL; LYMPHOCYTE [1]: 90.33%; MEAN CORPUSCULAR HEMOGLOBIN [1]: 23.7 pg; MEAN CORPUSCULAR HEMOGLOBIN CONCENTRATION [1]: 38.27 G/DL; MEAN CORPUSCULAR VOLUME [1]: 62 fL; MONOCYTE [1]: 1%; NEUTROPHIL [1]: 8.67%; NUCLEATED RED BLOOD CELLS [1]: 0 /100WBC; PLATELET COUNT [1]: 1163.67 x10E3/uL; ALANINE AMINOTRANSFERASE [1]: 62.33 u/L; ALBUMIN [1]: 3.97 G/DL; ALKALINE PHOSPHATASE [1]: 368 u/L; ASPARTATE AMINOTRANSFERASE [1]: 96.33 u/L; BLOOD UREA NITROGEN [1]: 14.67 mg/dL; CARBON DIOXIDE [1]: 33.33 mmol/L; CHLORIDE [1]: 99.33 MEQ/L; CHOLESTEROL [1]: 68.33 mg/dL; CREATINE PHOSPHOKINASE [1]: 498.67 u/L; CREATININE [1]: 0.15 mg/dL; GLUCOSE [1]: 136.67 mg/dL; LACTATE DEHYDROGENASE [1]: 139.33 u/L; LIPASE [1]: 8.67 u/L; PHOSPHORUS [1]: 10.83 mg/dL; POTASSIUM [1]: 5.88 MEQ/L; SODIUM [1]: 143.33 MEQ/L; TOTAL BILIRUBIN [1]: 0.2 mg/dL; TOTAL PROTEIN [1]: 5.77 G/DL; URIC ACID [1]: 0.63 mg/dL; ABSOLUTE BASOPHIL [2]: 0 CELLS/uL; ABSOLUTE EOSINOPHIL [2]: 0 CELLS/uL; ABSOLUTE LYMPHOCYTE [2]: 9349.33 CELLS/uL; ABSOLUTE MONOCYTE [2]: 72.33 CELLS/uL; ABSOLUTE SEGMENTED NEUTROPHIL [2]: 311.67 CELLS/uL; BASOPHIL [2]: 0%; EOSINOPHIL [2]: 0%; ERYTHROCYTE COUNT [2]: 5.27 x10E6/uL; HEMATOCRIT [2]: 33.67%; HEMOGLOBIN [2]: 12.87 G/DL; LEUKOCYTE COUNT [2]: 9.73 x10E3/uL; LYMPHOCYTE [2]: 95.67%; MEAN CORPUSCULAR HEMOGLOBIN [2]: 24.4 pg; MEAN CORPUSCULAR HEMOGLOBIN CONCENTRATION [2]: 38.23 G/DL; MEAN CORPUSCULAR VOLUME [2]: 63.83 fL; MONOCYTE [2]: 0.67%; NEUTROPHIL [2]: 3.67%; NUCLEATED RED BLOOD CELLS [2]: 0 /100WBC; PLATELET COUNT [2]: 1174 x10E3/uL; ALANINE AMINOTRANSFERASE [2]: 42.33 u/L; ALBUMIN [2]: 3.9 G/DL; ALKALINE PHOSPHATASE [2]: 336.33 u/L; ASPARTATE AMINOTRANSFERASE [2]: 77 u/L; BLOOD UREA NITROGEN [2]: 11.33 mg/dL; CARBON DIOXIDE [2]: 34 mmol/L; CHLORIDE [2]: 101 MEQ/L; CHOLESTEROL [2]: 72 mg/dL; CREATINE PHOSPHOKINASE [2]: 402.67 u/L; CREATININE [2]: 0.11 mg/dL; GLUCOSE [2]: 134.67 mg/dL; LACTATE DEHYDROGENASE [2]: 129.33 u/L; LIPASE [2]: 9 u/L; PHOSPHORUS [2]: 11.9 mg/dL; POTASSIUM [2]: 5.89 MEQ/L; SODIUM [2]: 146.47 MEQ/L; TOTAL BILIRUBIN [2]: 0.13 mg/dL; TOTAL PROTEIN [2]: 5.67 G/DL; URIC ACID [2]: 0.5 mg/dL; ABSOLUTE BASOPHIL [3]: 0 CELLS/uL; ABSOLUTE EOSINOPHIL [3]: 48 CELLS/uL; ABSOLUTE LYMPHOCYTE [3]: 6680.67 CELLS/uL; ABSOLUTE MONOCYTE [3]: 148.67 CELLS/uL; ABSOLUTE SEGMENTED NEUTROPHIL [3]: 722.67 CELLS/uL; BASOPHIL [3]: 0%; EOSINOPHIL [3]: 0.67%; ERYTHROCYTE COUNT [3]: 5.28 x10E6/uL; HEMATOCRIT [3]: 33.7%; HEMOGLOBIN [3]: 13.03 G/DL; LEUKOCYTE COUNT [3]: 7.6 x10E3/uL; LYMPHOCYTE [3]: 87.67%; MEAN CORPUSCULAR HEMOGLOBIN [3]: 24.73 pg; MEAN CORPUSCULAR HEMOGLOBIN CONCENTRATION [3]: 38.7 G/DL; MEAN CORPUSCULAR VOLUME [3]: 63.97 fL; MONOCYTE [3]: 2%; NEUTROPHIL [3]: 9.67%; NUCLEATED RED BLOOD CELLS [3]: 0 /100WBC; PLATELET COUNT [3]: 1083.67 x10E3/uL; ALANINE AMINOTRANSFERASE [3]: 53 u/L; ALBUMIN [3]: 3.73 G/DL; ALKALINE PHOSPHATASE [3]: 301 u/L; ASPARTATE AMINOTRANSFERASE [3]: 93 u/L; BLOOD UREA NITROGEN [3]: 15.67 mg/dL; CARBON DIOXIDE [3]: 30.67 mmol/L; CHLORIDE [3]: 101.67 MEQ/L; CHOLESTEROL [3]: 64 mg/dL; CREATINE PHOSPHOKINASE [3]: 243.33 u/L; CREATININE [3]: 0.18 mg/dL; GLUCOSE [3]: 145.67 mg/dL; LACTATE DEHYDROGENASE [3]: 116.33 u/L; LIPASE [3]: 11 u/L; PHOSPHORUS [3]: 10.67 mg/dL; POTASSIUM [3]: 5.44 MEQ/L; SODIUM [3]: 146.13 MEQ/L; TOTAL BILIRUBIN [3]: 0.1 mg/dL; TOTAL PROTEIN [3]: 5.47 G/DL; URIC ACID [3]: 0.57 mg/dL
